Tested on: human bone marrow-derived MSCs
Assay: Trypan blue survival rate of MSCs pre-cultivated with additive medium, after H2O2 challenge
Type: cell-based
Settings: for Cell survival rate-improving effect (in words): compared among additive compositions, H2O2 challenge; for Cell survival rate: third-generation MSCs cultivated with medium additive, then low-sugar DMEM with 100 mM H2O2 for 1 h, Trypan blue
Method: (1) Isolation of bone marrow-derived MSCs from a bone marrow: 20 mL to 40 mL of a human bone marrow was extracted and added to a sterile glass bottle with 3,000 U heparin, and the human bone marrow and the heparin were fully mixed for anticoagulation. Normal saline was added at the same amount as the human bone marrow to the sterile glass bottle, and mixing was conducted thoroughly to obtain diluted human bone marrow. The diluted human bone marrow was added slowly to a Ficoll liquid level with 1 part by volume of a lymphocyte separation solution (Ficoll separation solution) per 2 parts by volume of the diluted human bone marrow to obtain a mixed system. The mixed system was centrifuged at 2,000 r/min and 20° C. in a horizontal centrifuge for 25 min, and bone marrow-derived MSCs were collected from an interface, washed with normal saline 2 to 3 times, suspended with an appropriate amount of a culture medium, and counted.
(2) Primary cultivation of the bone marrow-derived MSCs: The bone marrow-derived MSCs obtained in the step (1) were inoculated at a density of 0.3×10^6/mL in a basal medium, and the primary cultivation was conducted. The basal medium is Dulbecco's Modified Eagle Medium (DMEM, GIBCO company, America). During the primary cultivation, the medium was changed every 2 d to remove non-adherent cells and continuously purify the human bone marrow-derived MSCs. When a cell density reached 80%, the sub-cultivation was conducted. For an experimental group, an additive composition of NOG and quercetin was added to the basal medium to prepare an experimental medium.
The sub-cultivation was conducted until third-generation human bone marrow-derived MSCs were obtained. The third-generation human bone marrow-derived MSCs were further cultivated with the experimental medium for cell transplantation.
(3) A survival rate of the human bone marrow-derived MSCs was detected with Trypan blue. The human bone marrow-derived MSCs obtained in the step (2) (cells cultivated without NOG and quercetin were adopted as a control group) were transferred to a low-sugar DMEM including 100 mM hydrogen peroxide (H2O2), cultivated for 1 h, stained with Trypan blue, and observed under a microscope to count a cell survival rate.

Row | SMILES | Cell survival rate-improving effect (in words) | Cell survival rate [%]
1 | O=c1c(O)c(-c2ccc(O)c(O)c2)oc2cc(O)cc(O)c12 [compound 1, quercetin] | inferior cell survival rate-improving effect | 50.2 ± 0.7
2 | O=C(O)CNC(=O)C(=O)O [compound 2, N-oxalylglycine] | inferior cell survival rate-improving effect | 52.3 ± 0.8
